{"source": "patent US20240016760A1", "about": "“Multivitamin” (priority 2022, published 2024)", "origin": "cited, not measured here", "key": {"[1]": {"test_system": "CFTR protein", "conditions": "patients with CF"}, "[2]": {"target": "CFTR Chloride channels (Homo sapiens, UniProt P13569)", "sequence (P13569 whole entry)": "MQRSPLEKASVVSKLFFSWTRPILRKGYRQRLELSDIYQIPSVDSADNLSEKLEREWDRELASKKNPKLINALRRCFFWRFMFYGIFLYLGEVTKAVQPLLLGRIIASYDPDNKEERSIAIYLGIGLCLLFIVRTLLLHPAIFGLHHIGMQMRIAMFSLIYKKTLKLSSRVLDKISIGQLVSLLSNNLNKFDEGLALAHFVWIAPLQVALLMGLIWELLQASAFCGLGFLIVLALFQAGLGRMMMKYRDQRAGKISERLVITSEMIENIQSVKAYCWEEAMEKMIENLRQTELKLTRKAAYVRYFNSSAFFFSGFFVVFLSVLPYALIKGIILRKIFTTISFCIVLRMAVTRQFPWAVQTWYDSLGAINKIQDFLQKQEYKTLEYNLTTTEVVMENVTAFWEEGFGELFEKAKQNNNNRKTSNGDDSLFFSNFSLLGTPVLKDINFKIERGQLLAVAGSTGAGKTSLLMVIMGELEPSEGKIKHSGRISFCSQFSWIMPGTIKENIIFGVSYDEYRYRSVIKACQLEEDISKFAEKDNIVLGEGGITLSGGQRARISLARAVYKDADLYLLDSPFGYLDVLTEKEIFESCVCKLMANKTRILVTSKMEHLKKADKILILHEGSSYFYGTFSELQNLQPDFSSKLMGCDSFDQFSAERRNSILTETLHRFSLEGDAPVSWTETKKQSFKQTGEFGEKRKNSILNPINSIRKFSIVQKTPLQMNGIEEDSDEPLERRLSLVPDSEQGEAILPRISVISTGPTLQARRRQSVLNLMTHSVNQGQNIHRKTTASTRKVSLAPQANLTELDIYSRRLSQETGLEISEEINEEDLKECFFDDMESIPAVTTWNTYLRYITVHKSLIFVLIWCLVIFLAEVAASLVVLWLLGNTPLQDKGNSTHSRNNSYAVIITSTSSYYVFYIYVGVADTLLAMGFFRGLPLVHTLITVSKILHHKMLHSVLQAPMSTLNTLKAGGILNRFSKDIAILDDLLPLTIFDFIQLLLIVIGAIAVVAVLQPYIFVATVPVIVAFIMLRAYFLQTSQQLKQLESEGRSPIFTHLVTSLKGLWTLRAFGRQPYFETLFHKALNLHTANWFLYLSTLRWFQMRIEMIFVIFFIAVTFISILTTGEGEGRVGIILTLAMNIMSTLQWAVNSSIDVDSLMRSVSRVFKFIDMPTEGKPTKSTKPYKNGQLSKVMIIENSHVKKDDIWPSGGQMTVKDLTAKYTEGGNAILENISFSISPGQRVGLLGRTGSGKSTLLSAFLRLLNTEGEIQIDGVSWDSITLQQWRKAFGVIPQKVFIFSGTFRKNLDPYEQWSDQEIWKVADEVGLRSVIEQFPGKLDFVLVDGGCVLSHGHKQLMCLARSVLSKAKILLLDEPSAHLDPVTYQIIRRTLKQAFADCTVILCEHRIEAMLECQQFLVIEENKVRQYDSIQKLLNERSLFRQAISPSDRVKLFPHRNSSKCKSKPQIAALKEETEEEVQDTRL", "conditions": "increase from zero, at the appropriate concentrations"}}}
{"smiles": "CC(C)(C)c1cc(C(C)(C)C)c(NC(=O)c2c[nH]c3ccccc3c2=O)cc1O", "note": "[Ivacaftor, ivacaftor]", "values": [{"measurement": "average increase in lung function (as measured by FEV1)", "setting": "[1]", "value": "~2", "unit": "%"}]}
{"smiles": "O=C1O[C@H]([C@@H](O)CO)C(O)=C1O", "note": "[vitamin C]", "values": [{"measurement": "average open probability of CFTR Chloride channels", "setting": "[2]", "value": "0.21 (+0.08)"}]}
